target: T1, human DP2 (Homo sapiens, UniProt Q9Y5Y4); experiment: DP-2 binding inhibition assay (3H-PGD2, membranes of DP2-expressing K562 cells); details: 4% HSA, read-out: EC50 (nM) 4% HSA
T1 construct: expressed in transfected cells; membranes prepared
T1 sequence (Q9Y5Y4 1-395): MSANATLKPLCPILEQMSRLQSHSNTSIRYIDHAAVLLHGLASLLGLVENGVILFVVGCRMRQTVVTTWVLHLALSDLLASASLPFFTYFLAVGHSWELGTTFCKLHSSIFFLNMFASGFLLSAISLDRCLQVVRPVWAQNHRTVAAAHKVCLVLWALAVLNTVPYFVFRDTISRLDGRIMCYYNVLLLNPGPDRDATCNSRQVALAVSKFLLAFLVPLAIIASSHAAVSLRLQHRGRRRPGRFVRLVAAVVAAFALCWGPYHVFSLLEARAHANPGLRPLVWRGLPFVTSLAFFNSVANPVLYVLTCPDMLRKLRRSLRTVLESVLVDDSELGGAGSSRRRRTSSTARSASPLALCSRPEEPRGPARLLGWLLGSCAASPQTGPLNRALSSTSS
In short: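 Displacement of 3H-PGD2 was measured by filtration and scintillation counting after 60 min at room temperature, using membranes of DP2-transfected K562 cells in 0.1% BSA, 1% HSA or 4% HSA.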

| SMILES | EC50 |
| --- | --- |
| O=C(Nc1cc(-c2ccccc2Cl)ccn1)c1ccc(Oc2cc3c(cc2Cl)C(C(=O)O)CCO3)cc1 (stereo not drawn) [Example 122, 6-Chloro-7-(4-(4-(2-chlorophenyl)pyridin-2-ylcarbamoyl)phenoxy)chroman-4-carboxylic acid] | 2580 nM |
| O=C(Nc1ccc(-c2ccc(Cl)cc2)nc1)c1ccc(Oc2cc3c(cc2Cl)C(C(=O)O)CCO3)cc1 (stereo not drawn) [Example 123, 6-Chloro-7-(4-(6-(4-chlorophenyl)pyridin-3-ylcarbamoyl)phenoxy)chroman-4-carboxylic acid] | 294 nM |
| O=C(Nc1ccc(-c2cccc(Cl)c2)nc1)c1ccc(Oc2cc3c(cc2Cl)C(C(=O)O)CCO3)cc1 (stereo not drawn) [Example 124, 6-Chloro-7-(4-(6-(3-chlorophenyl)pyridin-3-ylcarbamoyl)phenoxy)chroman-4-carboxylic acid] | 133 nM |
| O=C(Nc1ccc(-c2ccccc2Cl)nc1)c1ccc(Oc2cc3c(cc2Cl)C(C(=O)O)CCO3)cc1 (stereo not drawn) [Example 125, 6-Chloro-7-(4-(6-(2-chlorophenyl)pyridin-3-ylcarbamoyl)phenoxy)chroman-4-carboxylic acid] | 627 nM |
| O=C(Nc1cncc(-c2ccc(Cl)cc2)c1)c1ccc(Oc2cc3c(cc2Cl)C(C(=O)O)CCO3)cc1 (stereo not drawn) [Example 126, 6-Chloro-7-(4-(5-(4-chlorophenyl)pyridin-3-ylcarbamoyl)phenoxy)chroman-4-carboxylic acid] | 469 nM |
| O=C(Nc1cncc(-c2cccc(Cl)c2)c1)c1ccc(Oc2cc3c(cc2Cl)C(C(=O)O)CCO3)cc1 (stereo not drawn) [Example 127, 6-Chloro-7-(4-(5-(3-chlorophenyl)pyridin-3-ylcarbamoyl)phenoxy)chroman-4-carboxylic acid] | 690 nM |
| O=C(Nc1ccnc(-c2ccc(Cl)cc2)c1)c1ccc(Oc2cc3c(cc2Cl)C(C(=O)O)CCO3)cc1 (stereo not drawn) [Example 128, 6-Chloro-7-(4-(2-(4-chlorophenyl)pyridin-4-ylcarbamoyl)phenoxy)chroman-4-carboxylic acid] | 596 nM |
| O=C(Nc1ccnc(-c2cccc(Cl)c2)c1)c1ccc(Oc2cc3c(cc2Cl)C(C(=O)O)CCO3)cc1 (stereo not drawn) [Example 129, 6-Chloro-7-(4-(2-(3-chlorophenyl)pyridin-4-ylcarbamoyl)phenoxy)chroman-4-carboxylic acid] | 437 nM |
| O=C(Nc1nccc(-c2ccc(C(F)(F)F)cc2)n1)c1ccc(Oc2cc3c(cc2Cl)C(C(=O)O)CCO3)cc1 (stereo not drawn) [Example 130, 6-Chloro-7-(4-(4-(4-(trifluoromethyl)phenyl)pyrimidin-2-ylcarbamoyl)phenoxy)chroman-4-carboxylic acid] | 139 nM |
| O=C(Nc1nccc(-c2cccc(C(F)(F)F)c2)n1)c1ccc(Oc2cc3c(cc2Cl)C(C(=O)O)CCO3)cc1 (stereo not drawn) [Example 131, 6-Chloro-7-(4-(4-(3-(trifluoromethyl)phenyl)pyrimidin-2-ylcarbamoyl)phenoxy)chroman-4-carboxylic acid] | 128 nM |
| O=C(Nc1nccc(-c2ccc(Cl)cc2)n1)c1ccc(Oc2cc3c(cc2Cl)C(C(=O)O)CCO3)cc1 (stereo not drawn) [Example 132, 6-Chloro-7-(4-(4-(4-chlorophenyl)pyrimidin-2-ylcarbamoyl)phenoxy)chroman-4-carboxylic acid] | 128 nM |
| O=C(Nc1nccc(-c2cccc(Cl)c2)n1)c1ccc(Oc2cc3c(cc2Cl)C(C(=O)O)CCO3)cc1 (stereo not drawn) [Example 133, 6-Chloro-7-(4-(4-(3-chlorophenyl)pyrimidin-2-ylcarbamoyl)phenoxy)chroman-4-carboxylic acid] | 261 nM |
| O=C(Nc1ncc(-c2cccc(Cl)c2)cn1)c1ccc(Oc2cc3c(cc2Cl)C(C(=O)O)CCO3)cc1 (stereo not drawn) [Example 134, 6-Chloro-7-(4-(5-(3-chlorophenyl)pyrimidin-2-ylcarbamoyl)phenoxy)chroman-4-carboxylic acid] | 426 nM |
| O=C(Nc1cnc(-c2cccc(Cl)c2)nc1)c1ccc(Oc2cc3c(cc2Cl)C(C(=O)O)CCO3)cc1 (stereo not drawn) [Example 135, 6-Chloro-7-(4-(2-(3-chlorophenyl)pyrimidin-5-ylcarbamoyl)phenoxy)chroman-4-carboxylic acid] | 313 nM |
| O=C(Nc1cncc(-c2ccc(Cl)cc2)n1)c1ccc(Oc2c(Cl)cc3c(c2Cl)OCCC3C(=O)O)cc1 (stereo not drawn) [Example 136, 6,8-Dichloro-7-(4-(6-(4-chlorophenyl)pyrazin-2-ylcarbamoyl)phenoxy)chroman-4-carboxylic acid] | 442 nM |
| O=C(Nc1ccnc(-c2ccc(Cl)cc2)n1)c1ccc(Oc2c(Cl)cc3c(c2Cl)OCCC3C(=O)O)cc1 (stereo not drawn) [Example 137, 6,8-Dichloro-7-(4-(2-(4-chlorophenyl)pyrimidin-4-ylcarbamoyl)phenoxy)chroman-4-carboxylic acid] | 80.9 nM |

| SMILES | EC50 |
| --- | --- |
| O=C(NCCc1ncc(Cl)cc1Cl)c1ccc(Oc2cc3c(cc2Cl)C(C(=O)O)CCO3)cc1 (stereo not drawn) [Example 138, Sodium 6-chloro-7-(4-(2-(3,5-dichloropyridin-2-yl)ethylcarbamoyl)phenoxy)chroman-4-carboxylate] | 687 nM |
| CN(C)c1nc(C(F)(F)F)ccc1CCNC(=O)c1ccc(Oc2cc3c(cc2Cl)C(C(=O)O)CCO3)cc1 (stereo not drawn) [Example 139, Sodium 6-chloro-7-(4-(2-(2-(dimethylamino)-6-(trifluoromethyl)pyridin-3-yl)ethylcarbamoyl)phenoxy)chroman-4-carboxylate] | 40 nM |
| O=C(Nc1cccc(-c2ccc(Cl)cc2)n1)c1ccc(Oc2c(Cl)cc3c(c2Cl)OCCC3C(=O)O)cc1 (stereo not drawn) [Example 143, Sodium 6,8-dichloro-7-(4-(6-(4-chlorophenyl)pyridin-2-ylcarbamoyl)phenoxy)-chroman-4-carboxylate] | 83.4 nM |
| O=C(Nc1ccc2cc(Cl)ccc2n1)c1ccc(Oc2c(Cl)cc3c(c2Cl)OCCC3C(=O)O)cc1 (stereo not drawn) [Example 144, Sodium 6,8-dichloro-7-(4-(6-chloroquinolin-2-ylcarbamoyl)phenoxy)chroman-4-carboxylate] | 299 nM |
| O=C(Nc1ccc(-c2cccc(Cl)c2)nc1)c1ccc(Oc2c(Cl)cc3c(c2Cl)OCCC3C(=O)O)cc1 (stereo not drawn) [Example 145, Sodium 6,8-dichloro-7-(4-(6-(3-chlorophenyl)pyridin-3-ylcarbamoyl)phenoxy)-chroman-4-carboxylate] | 160 nM |
| N#Cc1cc2c(cc1Oc1ccc(C(=O)Nc3nnc(-c4ccccc4)s3)cc1)OCCC2C(=O)O (stereo not drawn) [Example 146, 6-Cyano-7-(4-(5-phenyl-1,3,4-thiadiazol-2-ylcarbamoyl)phenoxy)chroman-4-carboxylic acid] | 728 nM |
| N#Cc1cc2c(cc1Oc1ccc(C(=O)Nc3nnc(-c4ccc(Cl)cc4)s3)cc1)OCCC2C(=O)O (stereo not drawn) [Example 147, 7-(4-(5-(4-chlorophenyl)-1,3,4-thiadiazol-2-ylcarbamoyl)phenoxy)-6-cyanochroman-4-carboxylic acid] | 3440 nM |
| O=C(Nc1nnc(-c2ccccc2)s1)c1ccc(Oc2cc3c(cc2Cl)C(C(=O)O)CCO3)cc1 (stereo not drawn) [Example 148, 6-chloro-7-(4-(5-phenyl-1,3,4-thiadiazol-2-ylcarbamoyl)phenoxy)chroman-4-carboxylic acid] | 5460 nM |
| O=C(Nc1nnc(-c2ccc(Cl)cc2)s1)c1ccc(Oc2cc3c(cc2Cl)C(C(=O)O)CCO3)cc1 (stereo not drawn) [Example 149, 6-chloro-7-(4-(5-(4-chlorophenyl)-1,3,4-thiadiazol-2-ylcarbamoyl)phenoxy)chroman-4-carboxylic acid] | 1660 nM |
| CC(C)(C)c1csc(NC(=O)c2ccc(Oc3cc4c(cc3Cl)C(C(=O)O)CCO4)cc2)n1 (stereo not drawn) [Example 150, 7-(4-(4-tert-butylthiazol-2-ylcarbamoyl)phenoxy)-6-chlorochroman-4-carboxylic acid] | 32.7 nM |
| Cc1nc(NC(=O)c2ccc(Oc3cc4c(cc3Cl)C(C(=O)O)CCO4)cc2)sc1C(C)(C)C (stereo not drawn) [Example 151, 7-(4-(5-tert-butyl-4-methylthiazol-2-ylcarbamoyl)phenoxy)-6-chlorochroman-4-carboxylic acid] | 473 nM |
| O=C(Nc1nc(-c2ccc(Cl)cc2)cs1)c1ccc(Oc2cc3c(cc2Cl)C(C(=O)O)CCO3)cc1 (stereo not drawn) [Example 152, 6-chloro-7-(4-(4-(4-chlorophenyl)thiazol-2-ylcarbamoyl)phenoxy)chroman-4-carboxylic acid] | 45.3 nM |
| O=C(Nc1nc(-c2ccc(F)cc2)cs1)c1ccc(Oc2cc3c(cc2Cl)C(C(=O)O)CCO3)cc1 (stereo not drawn) [Example 153, 6-chloro-7-(4-(4-(4-fluorophenyl)thiazol-2-ylcarbamoyl)phenoxy)chroman-4-carboxylic acid] | 67.5 nM |
| O=C(Nc1nc(-c2ccc(F)c(F)c2)cs1)c1ccc(Oc2cc3c(cc2Cl)C(C(=O)O)CCO3)cc1 (stereo not drawn) [Example 154, 6-chloro-7-(4-(4-(3,4-difluorophenyl)thiazol-2-ylcarbamoyl)phenoxy)chroman-4-carboxylic acid] | 59 nM |
| O=C(Nc1nc(-c2ccc(F)cc2F)cs1)c1ccc(Oc2cc3c(cc2Cl)C(C(=O)O)CCO3)cc1 (stereo not drawn) [Example 155, 6-chloro-7-(4-(4-(2,4-difluorophenyl)thiazol-2-ylcarbamoyl)phenoxy)chroman-4-carboxylic acid] | 68.9 nM |
| CC(C)c1csc(NC(=O)c2ccc(Oc3cc4c(cc3Cl)C(C(=O)O)CCO4)cc2)n1 (stereo not drawn) [Example 156, 6-chloro-7-(4-(4-isopropylthiazol-2-ylcarbamoyl)phenoxy)chroman-4-carboxylic acid] | 157 nM |

same assay, conditions: EC50 (nM) 4% HSA, 4% HSA

| SMILES | EC50 |
| --- | --- |
| COc1ccc(CCNC(=O)c2ccc(Oc3cc4c(cc3Cl)C(C(=O)O)CCO4)cc2)c(OC)n1 (stereo not drawn) [Example 140, Sodium 6-chloro-7-(4-(2-(2,6-dimethoxypyridin-3-yl)ethylcarbamoyl)phenoxy)chroman-4-carboxylate] | 107 nM |

— patent US8785445B2 (Array BioPharma Inc., priority 2008, dated 2014)
